Key:
[1] = Antiproliferative activity against human PASMC cells assessed as cell viability incubated for 48 hrs under hypoxia condition by CCK-8 assay; assay type: toxicity, cell-based
[2] = Induction of apoptosis in hypoxia-induced human PASMC cells assessed as viable cells at 5 uM incubated for 12 hrs by Annexin V/FITC staining based flow cytometry analysis (reference value: 88.26%); assay type: functional; conditions: read-out: Activity
[3] = Induction of apoptosis in hypoxia-induced human PASMC cells assessed as early apoptotic cells at 5 uM incubated for 12 hrs by Annexin V/FITC staining based flow cytometry analysis (reference value: 10.17%); assay type: functional
[4] = Induction of apoptosis in hypoxia-induced human PASMC cells assessed as late apoptotic cells at 5 uM incubated for 12 hrs by Annexin V/FITC staining based flow cytometry analysis (reference value: 0.88%); assay type: functional
[5] = Induction of apoptosis in hypoxia-induced human PASMC cells assessed as necrotic cells at 5 uM incubated for 12 hrs by Annexin V/FITC staining based flow cytometry analysis (reference value: 0.68%); assay type: functional

## c1cc(-c2cnn3cc(-c4ccc(OCCN5CCCCC5)cc4)cnc23)ccn1 [DORSOMORPHIN]
[1]
  IC50: 5.48 µM
[2]
  viability at 5 µM: 89.4%
[3]
  Activity: 7.31%
[4]
  Activity: 1.7%
[5]
  Activity: 1.56%

— ChEMBL document CHEMBL6103567, “A novel pyridine-2-one AMPK inhibitor: Discovery, mechanism, and in vivo evaluation in a hypoxic pulmonary arterial hypertension rat model” (Eur J Med Chem, 2025)
